Experimental data from PMC2904498 (2010).
Like-named read-outs stand apart in the source and are kept apart here.

Assays:
[1] = target: T1, T. brucei neutral sphingomyelinase (TbnSMase) (Trypanosoma brucei, UniProt B9WNA2); assay type: biochemical
T1 sequence (B9WNA2 1-580): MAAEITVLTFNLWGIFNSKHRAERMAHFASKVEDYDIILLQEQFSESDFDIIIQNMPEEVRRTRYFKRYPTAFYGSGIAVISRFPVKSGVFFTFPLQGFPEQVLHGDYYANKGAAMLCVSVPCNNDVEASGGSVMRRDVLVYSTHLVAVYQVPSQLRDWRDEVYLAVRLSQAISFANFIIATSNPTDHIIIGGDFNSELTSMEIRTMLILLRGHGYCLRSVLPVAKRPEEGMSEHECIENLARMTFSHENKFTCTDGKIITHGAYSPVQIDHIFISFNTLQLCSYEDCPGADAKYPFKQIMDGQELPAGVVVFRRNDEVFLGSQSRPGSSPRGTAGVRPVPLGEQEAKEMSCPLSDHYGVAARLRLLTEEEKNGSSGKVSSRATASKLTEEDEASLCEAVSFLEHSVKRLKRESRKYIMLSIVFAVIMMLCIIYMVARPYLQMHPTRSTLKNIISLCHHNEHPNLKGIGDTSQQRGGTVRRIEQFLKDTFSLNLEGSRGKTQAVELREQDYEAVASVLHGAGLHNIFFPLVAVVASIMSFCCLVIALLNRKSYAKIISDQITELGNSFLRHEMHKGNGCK

[2] = target: T1, T. brucei neutral sphingomyelinase (TbnSMase); assay type: biochemical; remark: listed apart in the source

`O=C(/C=C/c1ccc(/C=C/C(=O)Nc2ccc(C3=NCCN3)cc2)cc1)Nc1ccc(C2=NCCN2)cc1` [GW4869] was tested, and the IC50 [1] was 14.4 ± 2.3 µM.

`CCCC[C@@H](C)/C=C(C)/C=C(\C)C(=O)NC1=C[C@@](O)(/C=C/C=C/C=C/C(=O)NC2=C(O)CCC2=O)[C@@H]2O[C@@H]2C1=O` [Manumycin A] was tested, and the IC50 [1] was 24.6 ± 4.6 µM.

Work on `CCCCCCCCCCCCCCCCCCOCC(COP(=O)([O-])OCC[N+](C)(C)C)OC` (stereo not drawn) [edelfosine] yielded an IC50 [2] of 21 ± 3.2 µM.
